Measurements published in patent US20230106174A1, “RAS INHIBITORS” (Revolution Medicines, Inc., priority 2021, published 2023).
pIC50: −log10 of the molar value. Each block holds one compound with its values, some of them ahead of it.

Assays:
K-Ras G13C = K-Ras G13C (Homo sapiens, UniProt P01116+P62937, G13C); assay: Raf-Ras (FRET or MOA) binding assay: disruption of BRAF RBD interaction with K-Ras G13C in presence of Cyclophilin A; type: biochemical; settings: read-out: IC50 in the Raf-Ras (FRET or MOA) binding assay re: K-Ras G13C
Sequence of K-Ras G13C (P01116 1-188 isoform P01116-2 G13C): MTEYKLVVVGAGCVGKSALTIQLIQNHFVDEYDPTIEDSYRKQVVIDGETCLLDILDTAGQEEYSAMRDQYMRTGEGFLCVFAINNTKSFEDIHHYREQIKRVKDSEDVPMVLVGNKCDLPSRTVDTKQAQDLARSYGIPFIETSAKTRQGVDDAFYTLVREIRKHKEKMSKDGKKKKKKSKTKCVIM
Sequence of K-Ras G13C (P62937 whole entry): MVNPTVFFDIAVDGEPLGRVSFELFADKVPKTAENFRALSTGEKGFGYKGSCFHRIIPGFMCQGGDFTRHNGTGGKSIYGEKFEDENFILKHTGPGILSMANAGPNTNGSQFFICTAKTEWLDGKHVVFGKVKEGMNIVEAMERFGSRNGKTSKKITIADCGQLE
Description: As used herein, the term “linker” refers to a divalent organic moiety connecting a first moiety (e.g., a macrocyclic moiety) to a second moiety (e.g., a cross-linking group). […] Compound is present in plate wells as a 10-point 3-fold dilution series starting at a final concentration of 30 μM. After incubation at 25° C. for 3 hours, a mixture of Anti-His Eu-W1024 and anti-GST allophycocyanin is then added to assay sample wells at final concentrations of 10 nM and 50 nM, respectively, and the reaction incubated for an additional 1.5 hours. TR-FRET signal is read on a microplate reader (Ex 320 nm, Em 665/615 nm). Compounds that facilitate disruption of a Ras:RAF complex are identified as those eliciting a decrease in the TR-FRET ratio relative to DMSO control wells.
Disruption of B-Raf Ras-Binding Domain (BRAF RBD) Interaction with K-Ras by Compounds of the Invention (Also Called a FRET Assay or an MOA Assay)
Note—The following protocol describes a procedure for monitoring disruption of K-Ras G12C (GMP-PNP) binding to BRAF^RBD by a compound of the invention. This protocol may also be executed substituting other Ras proteins or nucleotides.
The purpose of this biochemical assay was to measure the ability of test compounds to facilitate ternary complex formation between a nucleotide-loaded K-Ras isoform and Cyclophilin A; the resulting ternary complex disrupts binding to a BRAF^RBD Construct, inhibiting K-Ras signaling through a RAF effector. Data was reported as IC50 values.
In assay buffer containing 25 mM HEPES pH 7.3, 0.002% Tween20, 0.1% BSA, 100 mM NaCl and 5 mM MgCl2, tagless Cyclophilin A, His6-K-Ras-GMPPNP, and GST-BRAF^RBD were combined in a 384-well assay plate at final concentrations of 25 μM, 12.5 nM and 50 nM, respectively. Compound was present in plate wells as a 10-point 3-fold dilution series starting at a final concentration of 30 μM. […] TR-FRET signal was read on a microplate reader (Ex 320 nm, Em 665/615 nm). […]

NCI-H358 (K-Ras G12C) = assay: CellTiter-Glo cell viability assay, 5-day treatment, NCI-H358; type: cell-based; settings: Homo sapiens, NCI-H358, 120 h
Text: Determination of Cell Viability in RAS Mutant Cancer Cell Lines
Protocol: CellTiter-Glo® Cell Viability Assay
Note—The following protocol describes a procedure for monitoring cell viability of K-Ras mutant cancer cell lines in response to a compound of the invention. Other RAS isoforms may be employed, though the number of cells to be seeded will vary based on cell line used.
The purpose of this cellular assay was to determine the effects of test compounds on the proliferation of three human cancer cell lines (NCI-H358 (K-Ras G12C), AsPC-1 (K-Ras G12D), and Capan-1 (K-Ras G12V)) over a 5-day treatment period by quantifying the amount of ATP present at endpoint using the CellTiter-Glo® 2.0 Reagent (Promega).
Cells were seeded at 250 cells/well in 40 μL of growth medium in 384-well assay plates and incubated overnight in a humidified atmosphere of 5% CO2 at 37° C. On the day of the assay, 10 mM stock solutions of test compounds were first diluted into 3 mM solutions with 100% DMSO. Well-mixed compound solutions (15 μL) were transferred to the next wells containing 30 μL of 100% DMSO, and repeated until a 9-concentration 3-fold serial dilution was made (starting assay concentration of 10 μM). Test compounds (132.5 nL) were directly dispensed into the assay plates containing cells. The plates were shaken for 15 seconds at 300 rpm, centrifuged, and incubated in a humidified atmosphere of 5% CO2 at 37° C. for 5 days. On day 5, assay plates and their contents were equilibrated to room temperature for approximately 30 minutes. CellTiter-Glo® 2.0 Reagent (25 μL) was added, and plate contents were mixed for 2 minutes on an orbital shaker before incubation at room temperature for 10 minutes. Luminescence was measured using the PerkinElmer Enspire. Data were normalized by the following: (Sample signal/Avg. DMSO)*100. The data were fit using a four-parameter logistic fit.

K-Ras G12C = target: T1, K-Ras G12C (Homo sapiens, UniProt P01116+P62937, G12C); assay: pERK potency assay in NCI-H358 cells (AlphaLISA SureFire or In-Cell Western); type: cell-based; settings: 4 hours incubation
T1 construct: endogenous in cells; host or cells: NCI-H358
T1 sequence (P01116 1-188 isoform P01116-2 G12C): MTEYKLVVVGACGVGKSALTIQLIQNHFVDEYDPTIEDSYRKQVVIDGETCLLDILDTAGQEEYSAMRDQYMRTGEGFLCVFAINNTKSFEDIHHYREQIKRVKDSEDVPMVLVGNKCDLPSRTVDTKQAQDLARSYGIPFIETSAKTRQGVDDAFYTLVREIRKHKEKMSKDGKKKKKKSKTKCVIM
T1 sequence (P62937 whole entry): as the sequence (P62937 whole entry) above
Description: The purpose of this assay was to measure the ability of test compounds to inhibit K-Ras in cells. […] This procedure measures a decrease in cellular pERK in response to test compounds. The procedure described below in NCI-H358 cells is applicable to K-Ras G12C. […]
NCI-H358 cells were grown and maintained using media and procedures recommended by the ATCC. On the day prior to compound addition, cells were plated in 384-well cell culture plates (40 μl/well) and grown overnight in a 37° C., 5% CO2 incubator. Test compounds were prepared in 10, 3-fold dilutions in DMSO, with a high concentration of 10 mM. On the day of assay, 40 nL of test compound was added to each well of cell culture plate using an Echo550 liquid handler (LabCyte®). Concentrations of test compound were tested in duplicate. After compound addition, cells were incubated 4 hours at 37° C., 5% CO2. Following incubation, culture medium was removed and cells were washed once with phosphate buffered saline.
In some experiments, cellular pERK level was determined using the AlphaLISA SureFire Ultra p-ERK1/2 Assay Kit (PerkinElmer). Cells were lysed in 25 μL lysis buffer, with shaking at 600 RPM at room temperature. Lysate (10 μL) was transferred to a 384-well Opti-plate (PerkinElmer) and 5 μL acceptor mix was added. After a 2-hour incubation in the dark, 5 μL donor mix was added, the plate was sealed, and incubated 2 hours at room temperature. Signal was read on an Envision plate reader (PerkinElmer) using standard AlphaLISA settings. Analysis of raw data was carried out in Excel (Microsoft) and Prism (GraphPad). Signal was plotted vs. the decadal logarithm of compound concentration, and IC50 was determined by fitting a 4-parameter sigmoidal concentration response model.
In other experiments, cellular pERK was determined by In-Cell Western. Following compound treatment, cells were washed twice with 200 μL tris buffered saline (TBS) and fixed for 15 minutes with 150 μL 4% paraformaldehyde in TBS. Fixed cells were washed 4 times for 5 minutes with TBS containing 0.1% Triton X-100 (TBST) and then blocked with 100 μL Odyssey blocking buffer (LI-COR) for 60 minutes at room temperature. […] Cells were washed 4 times for 5 minutes with TBST. Secondary antibody (IR-800CW rabbit, LI-COR, diluted 1:800) and DNA stain DRAQ5 (LI-COR, diluted 1:2000) were added and incubated 1-2 hours at room temperature. Cells were washed 4 times for 5 minutes with TBST. Plates were scanned on a Li—COR Odyssey CLx Imager. Analysis of raw data was carried out in Excel (Microsoft) and Prism (GraphPad). Signal was plotted vs. the decadal logarithm of compound concentration, and IC50 was determined by fitting a 4-parameter sigmoidal concentration response model.

SW1573 = settings: Canon et al., Nature 575:217-223 (2019); cited from earlier work
[1] = ester bond; 18-membered ring; EDCI/HOBT/DIPEA; DCM; 6.8 mM

Compound: C=CC(=O)N1CCOC2(CCN(C(=O)N(C)[C@H](C(=O)N[C@H]3Cc4nccc(n4)-c4ccc5c(c4)c(c(-c4cccnc4[C@H](C)OC)n5CC)CC(C)(C)COC(=O)[C@@H]4CCCN(N4)C3=O)C(C)C)CC2)C1 (atropisomer, axis not shown) [Example A191]
pIC50 (NCI-H358 (K-Ras G12C)): < 6.00
pIC50 (K-Ras G12C): < 6.00

Compound: C=CC(=O)N1CCN(c2nc(=O)n(-c3c(C)ccnc3C(C)C)c3nc(-c4c(O)cccc4F)c(F)cc23)[C@@H](C)C1 [AMG510]
sensitivity of cell line SW1573 (SW1573): insensitive

Compound: tert-butyl ((6^3S,4S,Z)-1^1-ethyl-1^2-(2-((S)-1-methoxyethyl)pyridin-3-yl)-10,10-dimethyl-5,7-dioxo-6^1,6^2,6^3,6^4,6^5,6^6-hexahydro-1^1H-8-oxa-2(5,3)-oxadiazola-1(5,3)-indola-6(1,3)-pyridazinacycloundecaphane-4-yl)carbamate
ring closure, isolated yield [1]: 18%

The next lines start with the values.

pIC50 (K-Ras G13C): < 5.82
Compound: CCn1c(-c2cccnc2[C@H](C)OC)c2c3cc(ccc31)-c1cccc(c1)C[C@H](NC(=O)[C@@H](COC1CN(C(=O)C#CC(C)(C)N(C)C)C1)N(C)C)C(=O)N1CCC[C@H](N1)C(=O)OCC(C)(C)C2 (atropisomer, axis not shown) [Example A169]

pIC50 (K-Ras G13C): < 5.82
Compound: CCn1c(-c2cccnc2[C@H](C)OC)c2c3cc(ccc31)N1CCS[C@@H](C[C@H](NC(=O)[C@@H](COC3CN(C(=O)C#CC(C)(C)N(C)C)C3)N(C)C)C(=O)N3CCC[C@H](N3)C(=O)OCC(C)(C)C2)C1 (atropisomer, axis not shown) [Example A171]

pIC50 (K-Ras G13C): < 5.82
Compound: CCn1c(-c2cccnc2[C@H](C)OC)c2c3cc(ccc31)N1CCS[C@@H](C[C@H](NC(=O)[C@@H](COC3CN(C(=O)C#CC(C)(C)N(C)C)C3)C(C)C)C(=O)N3CCC[C@H](N3)C(=O)OCC(C)(C)C2)C1 (atropisomer, axis not shown) [Example A175]

pIC50 (NCI-H358 (K-Ras G12C)): < 6.00
pIC50 (K-Ras G12C): < 6.00
Compound: CCn1c(-c2cccnc2[C@H](C)OC)c2c3cc(ccc31)C1=CCCN(C1)C[C@H](NC(=O)[C@H](C(C)C)N(C)C(=O)N1CCC3(CCN(C(=O)/C=C/CN(C)C)C3)CC1)C(=O)N1CCC[C@H](N1)C(=O)OCC(C)(C)C2 (atropisomer, axis not shown) [Example A192]
